The results in this text go back to paper PMC11596972, “Synthesis and Antimicrobial Activity of 3-Alkylidene-2-Indolone Derivatives” (Molecules, 2024).

Usually IC50 stands for the concentration needed to halve the response being measured. High values mean weaker potency, low ones greater potency. As usually defined, the MIC is the smallest concentration in the dilution series that meets the test's criterion for growth inhibition. As usually defined, the MBC is the lowest tested concentration that kills the bacteria rather than only halting them. A lower MBC goes with greater bactericidal potency.

Values after ≈ are worked out from the molar mass of the structure shown.

Data set [1] is described as follows: Cytotoxicity, MTT assay, L-02. As to conditions: human, L-02 cells (normal liver cell line), 48 h incubation. Type of data set: cell-based. As to the method: (§1) The cytotoxicity of the most bioactive compounds 10f, 10g and 10h were evaluated in vitro against the HepG2 cell line (human hepatocellular carcinoma cell line) and the L-02 cell line (normal liver cell line) by 3-(4,5-dimethylthiazol-2-yl)-2,5-diphenyltetrazolium bromide (MTT) assay. The obtained results were presented by the inhibitory concentration that reduces the viability of the cell population to 50% of the maximal viability (IC50).
(§2) HepG2 cells and L-02 cells (ATCC, Manassas, VA, USA) were plated in 96-well plates at a density of 30–40% to ensure exponential growth throughout the experimental period, and then allowed to adhere for 1 day. Next, the cells were treated with eight concentrations (100, 50, 25, 10, 5, 1, 0.1, and 0.01 μmol/L) of each compound. After 48 h of incubation, MTT solution was added to each well at a final concentration of 2 mg/mL and incubated for an additional 4 h. Next, the MTT solution was removed and […] of dimethyl sulphoxide (DMSO)/well was added (Sigma-Aldrich, St. Louis, MO, USA). The plates were shaken vigorously at RT to ensure complete solubilization, and absorption at 492 nm was determined by a microplate reader (BioTek Instruments, Inc., Winooski, VT, USA). At least three independent experiments were conducted.
For orientation: Formazan colour is commonly taken as a measure of viable cells.

The test system of a further data set is MRSA ATCC 43300. As to the kind of experiment: MIC, double dilution method, MRSA ATCC 43300. The format is cell-based, Methicillin-resistant Staphylococcus aureus. To be noted: Staphylococcus aureus, 24 h, MRSA ATCC 43300, Gram-positive; 24 h culture.
The subject of another data set is P. aeruginosa CMCC 10211. As to the kind of experiment: MIC, double dilution method, P. aeruginosa CMCC 10211. Type of data set: cell-based. As to conditions: Pseudomonas aeruginosa, CMCC10211, 24 h.
The next data set relates to S. aureus ATCC 6538. Put plainly: MIC, double dilution method, S. aureus ATCC 6538. Type of data set: cell-based. To be noted: Staphylococcus aureus, ATCC6538, 24 h.
A further data set concerns C. albicans CMCC 98001. Put plainly: MIC, double dilution method, C. albicans CMCC 98001. Type of data set: cell-based, Candida albicans. As to conditions: Candida albicans, CMCC98001, 24 h, C. albicans CMCC 98001, fungus; 24 h culture.
The next data set concerns E. coli ATCC 25922. As to the kind of experiment: MIC, double dilution method, E. coli ATCC 25922. As to conditions: Escherichia coli, ATCC25922, 24 h. The format is cell-based.
In another data set the test system is S. aureus 4220. Put plainly: MIC, double dilution method, S. aureus 4220. Type of data set: cell-based. As to conditions: Staphylococcus aureus, 4220, 24 h.
Data set [2] can be described thus: Cytotoxicity, MTT assay, HepG2. Type of data set: cell-based. As to conditions: human, HepG2 cells, 48 h incubation. As to the method: as §1, §2
Data set [3] has as its system Staphylococcus aureus ATCC 43300. Put plainly: Minimum bactericidal concentration, S. aureus ATCC 43300. Type of data set: cell-based. As to conditions: ATCC43300. The protocol: Moreover, minimum bactericidal concentration (MBC (μg/mL)) or minimum fungicidal concentration (MFC (μg/mL)) assays were performed for the promising compounds 10d, 10f, 10g and 10h against Staphylococcus aureus ATCC 6538, Staphylococcus aureus 4220, Staphylococcus aureus ATCC 43300 and Candida albicans CMCC 98001, and shown in Table 2.
The minimum bactericidal concentration (MBC) or minimum fungicidal concentration (MFC) was determined as described, following the MIC assay, by subculturing 5 μL of the compounds from wells showing no visible growth onto fresh agar plates. The plates were incubated at 37 °C for 24 h.

Another data set deals with E. coli 1924. As to the kind of experiment: MIC, double dilution method, E. coli 1924. The format is cell-based, Escherichia coli. As to conditions: Escherichia coli, 1924, 24 h.

Regarding `CCCN1C(=O)/C(=C(\O)c2ccc(Cl)cc2)c2ccccc21` [Compound 10h, (Z)-3-((4-chlorophenyl)(hydroxy)methylene)-1-propylindolin-2-one], the 50% inhibitory concentration (IC50) at 48 h was determined as 53.5 µM in data set [1] and 41.6 µM in data set [2]. Also, the MIC was 0.5 µg/mL (≈ 1.59 µM) against MRSA ATCC 43300; 16 µg/mL (≈ 51 µM) against P. aeruginosa CMCC 10211; 0.5 µg/mL (≈ 1.59 µM) against S. aureus ATCC 6538; 64 µg/mL (≈ 204 µM) in the data set on C. albicans CMCC 98001; 16 µg/mL (≈ 51 µM) against E. coli ATCC 25922; 1 µg/mL (≈ 3.19 µM) in the data set with S. aureus 4220. The lowest concentration to inhibit growth against E. coli 1924 (MIC) was 1 µg/mL (≈ 3.19 µM). The minimal bactericidal concentration (MBC) in data set [3] came to 32 µg/mL (≈ 102 µM).
